Test results taken from patent US20250302714A1, “ORAL HEALTH AGENT AND COMPOSITION FOR USE IN DOMESTIC ANIMALS” (priority 2022, published 2025).

System: canine oral microbiome
Test: Controlled clinical study in beagles: oral swab sequencing of the canine oral microbiome
Assay type: in vivo, dog (beagles)
Settings: 14 beagles, arginine powder mixture (1.5% L-arginine) twice daily after meals, 28 days post dental cleaning, oral swabs, global sequencing
Description: In vitro and in vivo studies were required to assert the activity of arginine in oral care of domestic animals. […] Controlled clinical studies were performed in 14 beagles fed an arginine powder mixture (Table 2) twice daily after meals. Dental assessments were performed using photographic inspection after the application of a biofilm disclosing agent. Animals were fed the mixture for 28 days prior to final assessment. Oral swab samples were collected at days 0, 7, 14 and 28 and subjected to global sequencing studies.
In this study bacterial populations were clustered and plotted in separate figures. Data was obtained after 28 days of treatment post dental cleaning.

N=C(N)NCCC[C@H](N)C(=O)O [arginine, L-arginine]
relative abundance of oral bacterial populations, treated vs control animals: shift towards healthy oral bacterial populations
